Reference: US5621133A (priority 1995, dated 1997)
Structures can show the parent of a compound that is named as a salt. Where two headings read alike, the source gives them in different places.

Columns and labels:
[1] = target: dopamine D-2 receptor (Rattus norvegicus, UniProt P61169); experiment: biochemical; format: binding
Protocol: Homogenized rat caudate was the source of the D-2 receptors. […] The molar affinity of the compound for the receptor binding site was calculated by the same method used for the D-1 receptor assay, assuming a competitive interaction between the compound and the radiolabeled ligand.

[2] = target: dopamine D-1 receptor (Rattus norvegicus, UniProt P18901); experiment: biochemical; details: D-1 Ki, rat caudate, [125I]SCH-23982
Sequence of dopamine D-1 receptor (Rattus norvegicus, UniProt P18901) (P18901 whole entry): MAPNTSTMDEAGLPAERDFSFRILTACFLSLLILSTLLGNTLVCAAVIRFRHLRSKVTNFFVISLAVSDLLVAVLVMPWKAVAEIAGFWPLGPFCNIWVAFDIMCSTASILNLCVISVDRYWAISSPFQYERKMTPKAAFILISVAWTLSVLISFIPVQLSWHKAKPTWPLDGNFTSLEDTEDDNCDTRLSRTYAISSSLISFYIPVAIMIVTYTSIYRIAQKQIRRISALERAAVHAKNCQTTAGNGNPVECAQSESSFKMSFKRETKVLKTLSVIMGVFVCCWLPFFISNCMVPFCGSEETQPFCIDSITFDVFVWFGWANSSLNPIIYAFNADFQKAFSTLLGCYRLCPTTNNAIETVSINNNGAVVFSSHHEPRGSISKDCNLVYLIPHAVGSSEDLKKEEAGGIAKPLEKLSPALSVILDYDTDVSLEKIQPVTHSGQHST
Description: The compounds compete with the radiolabeled ligand for occupancy of the receptors and the molar potency of each compound was quantified.
The Ki values are inversely proportional to the affinity of the compound for the receptor.

[3] = test system: dopamine D-1 receptor; details: for Intrinsic Activity (adenylate cyclase assay): dopamine = 100, goldfish retina or rat striatum; for EC50: read-out: EC50 (agonist activity in adenylate cyclase assay), tissue from goldfish retina or rat striatum
Protocol: In order to determine agonist activity, cell-free tissue homogenates are incubated in an ionic buffer solution containing ATP and the compound being evaluated. The tissue was obtained from either goldfish retina or rat striatum.

[4] = rat caudate, [125I]-p-aminophenylethyl spiroperidol, read-out: D-2 Ki

Sequence of dopamine D-2 receptor (P61169 whole entry): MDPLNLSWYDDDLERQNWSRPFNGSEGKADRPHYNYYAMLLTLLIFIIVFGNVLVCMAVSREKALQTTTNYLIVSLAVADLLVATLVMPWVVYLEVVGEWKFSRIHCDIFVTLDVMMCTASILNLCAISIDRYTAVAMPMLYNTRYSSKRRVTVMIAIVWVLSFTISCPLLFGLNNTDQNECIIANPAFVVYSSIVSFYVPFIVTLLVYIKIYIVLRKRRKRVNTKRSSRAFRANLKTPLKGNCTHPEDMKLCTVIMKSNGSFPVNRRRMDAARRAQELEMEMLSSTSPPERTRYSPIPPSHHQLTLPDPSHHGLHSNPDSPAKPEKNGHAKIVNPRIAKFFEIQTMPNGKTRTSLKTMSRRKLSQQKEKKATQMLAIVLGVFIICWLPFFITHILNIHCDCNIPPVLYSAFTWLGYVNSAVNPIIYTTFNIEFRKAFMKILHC

SMILES	Ki [1, 4] [µM]	Ki [2] [µM]	Intrinsic Activity (adenylate cyclase assay) [3]	also measured
C=CCN(C)C[C@H]1O[C@@H](CCCCCC)Cc2c1ccc(O)c2O (relative stereo) [Example 121]			51	EC50 [3]: 21 µM
NCC1OC2(CCCCCCC2)Cc2c1ccc(O)c2O (stereo not drawn) [Example 94]	> 10	0.084	110	EC50 [3]: 0.071 µM
CC(C)(C)[C@H]1Cc2c(ccc(O)c2O)[C@@H](CN)O1 (relative stereo) [Example 48, [1,3-cis]1-Aminomethyl 3-t-butyl-5,6-dihydroxy-3,4-dihydro-1H-2-benzopyran Hydrochloride]	13		112	
CNC[C@H]1O[C@@H](CCO)Cc2c1ccc(O)c2O (relative stereo) [Example 174]	3.5	1.2	90	EC50 [3]: 0.065 µM
NC[C@H]1O[C@@H](c2ccc(C(F)(F)F)cc2)Cc2c1ccc(O)c2O (relative stereo) [Example 98]	1.9	0.22	108	EC50 [3]: 0.018 µM
Br.N[C@@H]1CCc2cc(O)c(O)c3c2[C@H]1C[C@H](c1ccccc1)C3 (relative stereo) [Example 182, [1R*,8S*,9aR*]1-Amino-5,6-dihydroxy-8-phenyl-2,3,7,8,9,9a-hexahydro-phenalene Hydrobromide]	2.2		65	
CCNC[C@@H]1O[C@H](C(C)(C)C)Cc2c1ccc(O)c2O [Example 128]	23	0.57	108	EC50 [3]: 0.087 µM
NCC1=CC(c2cccc(O)c2)Cc2c1ccc(O)c2O (stereo not drawn) [Example 38]	30	0.12	91	EC50 [3]: 0.033 µM
CC(C)(C)C(=O)NC[C@H]1Cc2c(ccc(O)c2O)[C@@H](CN)O1 (relative stereo) [Example 166]	2.4	4.8	97	EC50 [3]: 0.18 µM
CC(C)(C)C1Cc2c(ccc(O)c2O)C(CN)O1 (stereo not drawn) [Example 102]	> 10		113	
CNC[C@H]1O[C@@H](C2CCCCC2)Cc2c1ccc(O)c2O (relative stereo) [Example 111, [1,3-cis]3-Cyclohexyl-5,6-dihydroxy-1-methylaminomethyl-3,4-dihydro-1H-2-benzopyran Hydrochloride]	0.72			
C#CC[C@H]1Cc2c(ccc(O)c2O)[C@@H](CN)O1 (relative stereo) [Example 110, [1,3-cis]1-Aminomethyl-5,6-dihydroxy-3-(3'-prop-1'-ynyl)-3,4-dihydro-1H-2-benzopyran Hydrochloride]	1.1			
C#CCN(C)C[C@H]1O[C@@H](C2CCCCC2)Cc2c1ccc(O)c2O (relative stereo) [Example 119]	> 10			
CCCCC[C@H]1Cc2c(ccc(O)c2O)[C@@H](CNC)O1 (relative stereo) [Example 144]	0.091		107	
NC[C@H]1O[C@@H](C23CC4CC(CC(C4)C2)C3)Cc2c1cc(F)c(O)c2O (relative stereo) [Example 106]	> 10		65	
NC[C@@H]1O[C@H](C2CCCCCCC2)Cc2c1ccc(O)c2O (relative stereo) [Example 76]	0.44			
COC(=O)CCC(=O)Oc1ccc2c(c1OC(=O)CCC(=O)OC)CC(c1ccccc1)C=C2CN (stereo not drawn) [Example 19]	> 10	0.6		
C=CCCCC[C@@H]1Cc2c(ccc(O)c2O)[C@H](CN)O1 (relative stereo) [Example 66]	0.64		84	

SMILES	Ki [1, 4] [µM]	Ki [2] [µM]	Intrinsic Activity (adenylate cyclase assay) [3]	also measured
NC[C@@H]1O[C@H](C(c2ccccc2)c2ccccc2)Cc2c1ccc(O)c2O (relative stereo) [Example 71]	2.8			
C=CCN(C)C[C@H]1O[C@@H](C2CCCCC2)Cc2c1ccc(O)c2O (relative stereo) [Example 120]	3			
NCC1=CC(c2ccccc2)Cc2c1ccc(OC(=O)NCc1ccccc1)c2OC(=O)NCc1ccccc1 (stereo not drawn) [Example 30]		> 10		Ki ([1]; D-2 Ki, rat caudate, [125I]-p-aminophenylethyl spiroperidol): 32 µM
CC(C)(C)[C@H]1Cc2c(ccc(O)c2O)[C@@H](CN)O1 (relative stereo) [Example 100]	54			
Oc1ccc2c(c1O)CC1(CCCCCC1)C1CCNCC21 (stereo not drawn) [Example 252]			49	
C=CC[C@H]1Cc2c(ccc(O)c2O)[C@@H](CN)O1 (relative stereo) [Example 101]			119	
CC(C)(C)[C@@H]1Cc2c(ccc(O)c2O)[C@H](CN)C1 (relative stereo) [Example 195]		0.25	73	EC50 [3]: 0.4 µM
CN(C)C[C@H]1O[C@@H](CC2CCCCC2)Cc2c1ccc(O)c2O (relative stereo) [Example 148A]	2.6	0.71		
CCCC1(CCC)Cc2c(ccc(O)c2O)C(CN)C1 (stereo not drawn) [Example 198]		3.7		
Oc1ccc2c(c1O)C[C@@H](c1ccccc1)O[C@H]2[C@@H]1CCCN1 [Example 124]	0.47	1.9		
NC[C@@H]1O[C@H](C23CC4CC(CC(C4)C2)C3)Cc2c(O)c(O)cc(Br)c21 (relative stereo) [Example 107, 1-Aminomethyl-8-bromo-adamantyl-5,6-dihydroxy-3,4-dihydro-1H-2-benzopyran Hydrobromide]	> 10	2.5		
NC[C@@H]1O[C@H](c2cccc(O)c2)Cc2c1ccc(O)c2O (relative stereo) [Example 70]	0.65			
NC[C@@H]1O[C@H](c2ccccc2)Cc2c1ccc(O)c2O [Example 54]	0.91			
NC[C@@H]1O[C@H](C23CC4CC(CC(C4)C2)C3)Cc2c1cc(F)c(O)c2O [Example 103]	2		88	
NC[C@H]1O[C@@H](C2CCCCC2)Cc2c1ccc(O)c2O (relative stereo) [Example 50]				Ki ([1]; D-2 Ki): 1.2 µM
COc1ccc(CC2Cc3c(ccc(O)c3O)C(CN)O2)cc1 (stereo not drawn) [Example 83]	4.5			
NC[C@H]1O[C@@H](c2ccccc2)Cc2c1ccc(O)c2O (relative stereo) [Example 49]	1			
NCC1OC(c2ccccc2)Cc2c1ccc(O)c2O (stereo not drawn) [Example 96]	0.87			

Continued, in another order:

Ki [1, 4] [µM]	Ki [2] [µM]	Intrinsic Activity (adenylate cyclase assay) [3]	SMILES	also measured
0.88	0.58		CN1CCC2=C(C1)c1ccc(O)c(O)c1CC21CCCCCCCC1 [Example 248]	
6.3	0.33	92	CC(C)(C)C1C=C(CN)c2ccc(O)c(O)c2C1 (stereo not drawn) [Example 190]	EC50 [3]: 0.11 µM
1.2		64	Oc1ccc2c(c1O)CC1(CCCCCCC1)C1=C2CNCC1 [Example 207]	
6.4	2.5	70	CNC[C@@H]1S[C@H](c2ccccc2)Cc2c1ccc(O)c2O (relative stereo) [Example 187, [1,3-cis]1-(N-Methyl)aminomethyl-3-phenyl-3,4-dihydro-5,6-dihydroxy-1H-2-benzothiopyran Hydrochloride]	EC50 [3]: 1.2 µM
> 10	0.026	59	CN(C)C[C@@H]1O[C@H](C2(C)CCCCC2)Cc2c1ccc(O)c2O (relative stereo) [Example 230]	EC50 [3]: 0.12 µM
> 10	3.3	65	NCC1=CC2(CCCCC2)Cc2c1ccc(O)c2O [Example 189]	EC50 [3]: 1.5 µM
3.3		120	Oc1ccc2c(c1O)CC(c1ccccc1)C1=C2CNCC1 (stereo not drawn) [Example 200]	
7	2		NCC1=CC2(CCCCCC2)Cc2c1ccc(O)c2O [Example 188, 1'-Aminomethyl-5,6'-dihydroxyspiro[cycloheptane-1,3'-(3',4'-dihydro-2'-H-naphthalene)]hydrobromide]	
0.18	0.35		CN1CCC2=C(C1)c1ccc(O)c(O)c1CC2CC1CCCC1 (stereo not drawn) [Example 245]	
1.5		110	Oc1ccc2c(c1O)C[C@@H](c1ccccc1)C1=C2CNCC1 [Example 201]	
3.1	0.53		CCCC1(CCC)Cc2c(ccc(O)c2O)C2=C1CCNC2 [Example 208]	
> 10	3.2		CC(C)(C)CC1C=C(CN)c2ccc(O)c(O)c2C1 (stereo not drawn) [Example 233]	
2		103	Oc1ccc2c(c1O)CC(c1ccccc1)C1=C2CNCC1 (stereo not drawn) [Example 239]	
1.6		84	Oc1ccc2c(c1O)CC(C1CCCCC1)C1=C2CNCC1 (stereo not drawn) [Example 202]	
2	1.5		CC(C)(C)CC1Cc2c(ccc(O)c2O)C2=C1CCNC2 (stereo not drawn) [Example 242]	
> 10		56	Br.N[C@H]1CCc2cc(O)c(O)c3c2[C@H]1C[C@H](c1ccccc1)C3 (relative stereo) [Example 183, [1S*,8S*,9aR*]1-Amino-5,6-dihydroxy-8-phenyl-2,3,7,8,9,9a-hexahydrophenalene Hydrobromide]	
> 10	3.2		CCCC1(CCC)C=C(CN)c2ccc(O)c(O)c2C1 [Example 192]	
> 10	5.1		Oc1ccc2c(c1O)CC(C13CC4CC(CC(C4)C1)C3)C1=C2CNCC1 (stereo not drawn) [Example 238]	
		70	CC(=O)NCC1=CC(c2ccccc2)Cc2c1ccc(O)c2O (stereo not drawn) [Example 213, 1-Acetylaminomethyl-3-phenyl-5,6-dihydroxy-3,4-dihydronaphthalene]	
